{"source": "patent US8883680B2", "about": "“Herbicide combinations with particular sulphonyl ureas” (Bayer Cropscience AG, priority 2006, dated 2014)", "type_in_all_cases": "in vivo", "key": {"Lamium amplexicaule": {"test_system": "Lamium amplexicaule", "assay": "Herbicidal action against weeds (greenhouse trials), post-emergence", "details": "672 h, 2- to 3-leaf stage, scored visually approx. 4 weeks after application", "method": "(§1) The seeds or rhizome pieces of typical harmful plants were placed into sandy loam soil in round pots, size 13, covered with soil and grown in a greenhouse under good growth conditions. After the harmful plants had emerged, they were treated, as a rule at the 2- to 3-leaf stage, with various dosages of the compositions according to the invention at a water application rate of 100 to 400 I/ha (converted).\n(§2) After the treatment (approx. 4 weeks after application), the herbidical activity of the active compounds or active compound mixtures was scored visually by comparing the treated plants with untreated controls. Damage and development of all above-ground parts of the plants was recorded. Scoring was done on a percentage scale (100% action=all plants dead; 50% action=50% of the plants and green plant parts dead; 0% action=no discernible action).\n(§3) The results are listed in the tables below, where the activity measured for the independent use of the active compounds (A) and (B) is stated in brackets."}, "Veronica persica": {"test_system": "Veronica persica", "assay": "Herbicidal action against weeds (greenhouse trials), post-emergence", "details": "672 h, 2- to 3-leaf stage, scored visually approx. 4 weeks after application", "method": "as §1, §2, §3"}, "Acacia farnesiana": {"test_system": "Acacia farnesiana", "assay": "Herbicidal action against woody shrub weeds (greenhouse trials)", "details": "Vachellia farnesiana, 672 h", "method": "as §1, §2, §3\n(§4) The plants were cultivated to the 5- to 6-leaf stage. Herbicide application and scoring of the trial were carried out as in Example 1."}, "Mimosa pigra": {"test_system": "Mimosa pigra", "assay": "Herbicidal action against woody shrub weeds (greenhouse trials)", "details": "672 h", "method": "as §1, §2, §3, §4"}, "[1]": {"details": "application rate 40 g of ai/ha, 5- to 6-leaf stage, scored visually approx. 4 weeks after application"}}, "data": [{"smiles": "COc1cc(OC)nc(NC(=O)NS(=O)(=O)N(C)S(C)(=O)=O)n1", "note": "[Amidosulfuron, 1-(4,6-dimethoxypyrimidin-2-yl)-3-mesyl(methyl)sulfamoylurea]", "values": [{"measurement": "inhibition at 20 g/ha", "setting": "Lamium amplexicaule; application rate 20 g of ai/ha", "value": 18, "unit": "%"}, {"measurement": "inhibition at 20 g/ha", "setting": "Veronica persica; application rate 20 g of ai/ha", "value": 20, "unit": "%"}, {"measurement": "inhibition at 40 g/ha", "setting": "Acacia farnesiana; [1]", "value": 43, "unit": "%"}, {"measurement": "inhibition at 40 g/ha", "setting": "Mimosa pigra; [1]", "value": 20, "unit": "%"}]}, {"smiles": "Nc1cc(Cl)nc(C(=O)O)c1Cl", "note": "[Aminopyralid, 4-amino-3,6-dichloropyridine-2-carboxylic acid]", "values": [{"measurement": "inhibition at 60 g/ha", "setting": "Acacia farnesiana; read-out: Acacia farnesiana % activity", "value": 55, "unit": "%"}, {"measurement": "inhibition at 60 g/ha", "setting": "Mimosa pigra; read-out: Mimosa pigra % activity", "value": 73, "unit": "%"}]}, {"smiles": "Nc1c(Cl)c(Cl)nc(C(=O)O)c1Cl", "note": "[Picloram, 4-amino-3,5,6-trichloropyridine-2-carboxylic acid]", "values": [{"measurement": "inhibition at 60 g/ha", "setting": "Lamium amplexicaule; application rate 60 g of ai/ha", "value": 75, "unit": "%"}, {"measurement": "inhibition at 60 g/ha", "setting": "Veronica persica; application rate 60 g of ai/ha", "value": 62, "unit": "%"}]}]}
